This passage reports GI50 and TGI results from PubChem BioAssay (NCI).

Each structure is given as a SMILES string.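 Values below derive from 48-hour exposures of cells grown in 96-well plates, with endpoints linearly interpolated between the two concentrations bracketing the appropriate inhibition level. Abbreviation: GI50, concentration required for 50% inhibition of growth. TGI is the concentration that stops growth completely.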

What all share (assay): inhibition of tumour cell growth, NCI panel, 48 h
Experiment [1] concerns EKVX NSCLC.
In experiment [2] the test system is UACC-62 melanoma.
Experiment [3] deals with U251 CNS.
Experiment [4] relates to 786-0 renal.
Experiment [5] relates to HCT-15 colon.
In experiment [6] the test system is HCC-2998 colon.
For experiment [7], the system named is SK-MEL-5 melanoma.
Experiment [8] relates to HT29 colon.

For `CC(/C=C/C(=O)c1sc(-n2nc(-c3ccccc3)cc2-c2ccccc2)nc1C)=C\c1ccccc1`, in experiment [1], the GI50 was 9.73 µM. Also, the TGI was > 100 µM in experiment [1]; > 100 µM in experiment [2]; > 100 µM in experiment [3]; > 100 µM in experiment [4]; 57.6 µM in experiment [5]; > 100 µM in experiment [6]. Besides, in experiment [7], the TGI was > 100 µM.

For `CN(C)c1ncnc2c1Cc1ccccc1C(=O)N2C`, the TGI in experiment [1], in experiment [2], in experiment [3], in experiment [8], in experiment [4] and in experiment [6] was > 100 µM each time. Also, the TGI in experiment [7] was > 100 µM.

In the case of `COc1ccc(/C=N/N=C(\N)NO)c(Cl)c1O`, the TGI in experiment [1] is > 100 µM; in experiment [2] it was > 100 µM; in experiment [3] it was > 100 µM; in experiment [4], > 100 µM; in experiment [5], > 100 µM; in experiment [6], 40.4 µM. In experiment [7], the TGI was found to be 40.6 µM.

Regarding `C=CCCOC(=O)CO[N+](=O)[O-]`, the TGI in experiment [1], in experiment [3], in experiment [8], in experiment [4], in experiment [5] and in experiment [6] was > 100 µM in each case.

`COc1cc(Br)c(CC2(C#N)c3ccccc3C3C(N2C(=O)c2ccccc2)C3(Cl)Cl)cc1OC` (stereo not drawn): the TGI in experiment [1], in experiment [2], in experiment [3], in experiment [8], in experiment [4] and in experiment [5] was > 65.5 µM throughout. The TGI in experiment [6] and in experiment [7] was > 65.5 µM throughout.

With `CC(=O)[O-].CC(=O)[O-].O=C(N/N=C/c1cc(Cl)cc(Cl)c1O)c1ccncc1.[Ni+2]`, the TGI in experiment [1], in experiment [2], in experiment [3], in experiment [8], in experiment [4] and in experiment [5] was > 100 µM each time. The TGI in experiment [6] and in experiment [7] was > 100 µM throughout.

On to `COc1ccc(/C=C/C(=O)C(C)(C)CN2CCCCC2)cc1`, for which the TGI in experiment [1] came to 80.7 µM; in experiment [2], 65.5 µM; in experiment [3] it was 30 µM; in experiment [8], 33 µM; in experiment [4], 29.9 µM; in experiment [5], 34.3 µM. Moreover, the TGI in experiment [6] was 33.7 µM; in experiment [7], 35.5 µM.

In the case of `CCOC(=O)Cc1nc2ccccc2s1`, the TGI is > 100 µM in experiment [1]; 33.3 µM in experiment [2]; 30.7 µM in experiment [3]; 37.1 µM in experiment [8]; 32.9 µM in experiment [4]; > 100 µM in experiment [6]. The TGI in experiment [7] came out at 48.5 µM.

`C[N+](C)(C)CC(=O)N/N=C(\CCC(=O)NCCc1ccccc1)CC(=O)c1ccccc1`: the TGI in experiment [1], in experiment [2], in experiment [3], in experiment [8], in experiment [4] and in experiment [5] was > 100 µM each time. Further, the TGI in experiment [6] and in experiment [7] was > 100 µM throughout.

With `N#CC(/C(=N\NC(=O)c1ccncc1)C(=O)Nc1ccc([N+](=O)[O-])cc1[N+](=O)[O-])c1nc(-c2ccc(Br)cc2)cs1` (stereo not drawn), the TGI in experiment [1], in experiment [2], in experiment [3], in experiment [4], in experiment [5] and in experiment [6] was > 100 µM each time. Also, in experiment [7], the TGI was > 100 µM.

Consider `c1ccc(N=c2snc3scc(-c4ccccc4)n23)cc1`, for which the TGI is > 100 µM in experiment [1]; 92.1 µM in experiment [2]; 68.3 µM in experiment [3]; > 100 µM in experiment [8]; > 100 µM in experiment [4]; > 100 µM in experiment [5]. For the same molecule, the values for the TGI in experiment [6] and in experiment [7] were > 100 µM and 61.9 µM, respectively.

For `CCSC(SCC)c1cc2c(cc1Br)OCO2`, the TGI in experiment [1] is > 100 µM; in experiment [2], > 100 µM; in experiment [3], 32.9 µM; in experiment [8], 44.8 µM; in experiment [4], > 100 µM; in experiment [5], > 100 µM. Besides, the TGI in experiment [6] is 67.5 µM; in experiment [7], 38.4 µM.

Consider `CSc1nc(NC2OCC(OC(C)=O)C(OC(C)=O)C2OC(C)=O)c(N=C(C)C(C)=O)c(=O)n1C` (stereo not drawn), for which the TGI in experiment [1], in experiment [2], in experiment [3], in experiment [8], in experiment [4] and in experiment [5] was > 100 µM throughout. The TGI in experiment [6] and in experiment [7] was > 100 µM in each case.

For `Cc1ccc2[nH]c3c(C)c4c(c(C)c3c2c1)CN(C)C=C4`, the TGI in experiment [1] was 10 µM; in experiment [2], 3.15 µM; in experiment [3], 1.09 µM; in experiment [8], 11.2 µM; in experiment [4] it was 10.5 µM; in experiment [5], 28.2 µM. Further, the TGI was 3.52 µM in experiment [6] and 2.94 µM in experiment [7].

Turning to `Cc1c(-c2ccccc2)c(=O)oc2ccc(Cl)cc12`, the TGI in experiment [1], in experiment [2], in experiment [3], in experiment [8], in experiment [4] and in experiment [5] was > 100 µM throughout. Further, the TGI in experiment [6] and in experiment [7] was > 100 µM each time.

As to `CC1CN(c2ccc(Cl)cc2)CC(C)(C)OC(=O)O1` (stereo not drawn), the TGI in experiment [1], in experiment [2], in experiment [3], in experiment [8], in experiment [4] and in experiment [5] was > 100 µM each time. In addition, the TGI in experiment [6] and in experiment [7] was > 100 µM in each case.

Turning to `O=c1c(-c2ccccc2)c2oc(c1-c1ccccc1)CS(=O)(=O)CCC2`, the TGI in experiment [1] is > 100 µM; in experiment [2], 54.3 µM; in experiment [8] it was 75.8 µM; in experiment [4], 44.1 µM; in experiment [5], 32.9 µM; in experiment [7], 85 µM.
